Source: article PMC7211837, “Design, synthesis, molecular modelling and in vitro screening of monoamine oxidase inhibitory activities of novel quinazolyl hydrazine derivatives” (Royal Society Open Science, 2020)
Values joined by “and” are separate entries in the source; they are usually repeats but may differ in a detail not shown here. Identical values can stand only once. “Also recorded” adds a separate entry of the source.

Experiments:
[1] = molecular target: T1, membrane-bound human MAO-B (Homo sapiens, UniProt P27338); assay: MAO-B inhibition, H2O2/horseradish peroxidase coupled fluorescence assay with tyramine; type: biochemical; details: for maximum inhibition (%) hMAO-B: from dose–response curve, in parentheses after IC50, given if less than 95%; for inhibition at 10 µM: read-out: % inhibition at 10 μM hMAO-B, 10 μM compound, tyramine 0.32 mM (2 × KM), average of two independent experiments; for IC50 / IC50 (μM) hMAO-B: tyramine at 2 × KM, seven concentrations 0.01–300 µM, ± s.d., two independent experiments; for IC50: read-out: IC50 (μM) hMAO-B
T1 sequence (P27338 1-520): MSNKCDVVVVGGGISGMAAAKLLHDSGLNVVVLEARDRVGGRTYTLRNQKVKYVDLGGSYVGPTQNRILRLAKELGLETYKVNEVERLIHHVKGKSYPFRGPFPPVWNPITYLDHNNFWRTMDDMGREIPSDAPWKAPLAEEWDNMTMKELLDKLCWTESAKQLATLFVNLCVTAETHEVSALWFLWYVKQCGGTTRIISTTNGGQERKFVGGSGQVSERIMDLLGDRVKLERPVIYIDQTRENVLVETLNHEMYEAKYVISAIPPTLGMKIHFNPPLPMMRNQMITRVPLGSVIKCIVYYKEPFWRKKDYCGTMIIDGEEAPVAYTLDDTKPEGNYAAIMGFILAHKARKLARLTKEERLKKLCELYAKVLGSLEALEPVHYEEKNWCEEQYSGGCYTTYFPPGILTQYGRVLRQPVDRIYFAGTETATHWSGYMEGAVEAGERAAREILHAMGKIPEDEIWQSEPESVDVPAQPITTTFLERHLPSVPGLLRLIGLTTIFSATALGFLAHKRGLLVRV
Experimental: (§1) Incomplete inhibition of activity could arise either from indirect effects on these enzymes or from the compounds acting as substrates at the highest concentrations.
(§2) The activity of MAO was determined using the coupled assay method of [41, 42] in which the product, H2O2, acts with horseradish peroxidase to convert 10-acetyl-3,7-dihydroxyphenoxazine to the fluorescent resorufin. […] The data were analysed using the equation for a three-parameter curve in Graphpad PRISM v. 4, and the % inhibition calculated from the top and bottom of the resulting curve.

[2] = molecular target: T2, membrane-bound human MAO-A (Homo sapiens, UniProt P21397); assay: MAO-A inhibition, H2O2/horseradish peroxidase coupled fluorescence assay with tyramine; type: biochemical; details: for inhibition at 10 µM: read-out: % inhibition at 10 μM hMAO-A, 10 μM compound, tyramine 0.8 mM (2 × KM), average of two independent experiments; for IC50 (μM) hMAO-A / IC50: tyramine at 2 × KM, seven concentrations 0.01–300 µM, ± s.d., two independent experiments; for IC50: read-out: IC50 (μM) hMAO-A; for selectivity MAO-A versus MAO-B: from IC50 values on MAO-A and MAO-B; for inhibition of MAO-A compared with MAO-B in the screen: screen at 10 µM
T2 sequence (P21397 1-527): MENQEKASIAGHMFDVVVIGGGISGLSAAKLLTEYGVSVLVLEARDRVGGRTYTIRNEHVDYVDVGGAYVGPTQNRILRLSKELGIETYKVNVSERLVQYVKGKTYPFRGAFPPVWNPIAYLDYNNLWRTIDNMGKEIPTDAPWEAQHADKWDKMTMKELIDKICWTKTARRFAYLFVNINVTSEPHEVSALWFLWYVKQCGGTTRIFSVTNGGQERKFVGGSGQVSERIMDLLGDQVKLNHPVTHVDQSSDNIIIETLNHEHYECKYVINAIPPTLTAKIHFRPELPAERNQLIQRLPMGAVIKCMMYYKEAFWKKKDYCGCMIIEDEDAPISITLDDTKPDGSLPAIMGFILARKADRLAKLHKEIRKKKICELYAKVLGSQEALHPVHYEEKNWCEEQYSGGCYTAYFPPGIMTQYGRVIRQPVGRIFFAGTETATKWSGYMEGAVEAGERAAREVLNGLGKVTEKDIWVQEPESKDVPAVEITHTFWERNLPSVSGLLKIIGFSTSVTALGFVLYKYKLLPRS
Experimental: as §1, §2

Structure (SMILES) | maximum inhibition (%) hMAO-B [1] | inhibition at 10 µM [1] | IC50 [1] | inhibition at 10 µM [2] | melting point | also measured
COC(=O)CN1C(=O)c2ccccc2NC1c1ccccc1 (centres unmarked) [3a, Methyl-2-(4-oxo-2-phenyl-1,2-dihydroquinazolin-3(4H)-yl)acetate] | 40% | 38% | 5.28 ± 1.44 µM | -6% | – | IC50 (μM) hMAO-A [2]: none
COC(=O)CN1C(=O)c2cc(Cl)ccc2NC1c1ccccc1 (centres unmarked) [3b, Methyl-2-(6-chloro-4-oxo-2-phenyl-1,2-dihydroquinazolin-3(4H)-yl)acetate] | – | 34% | – | 10% | 162 to 163 °C | –
COC(=O)CN1C(=O)c2cc(Cl)ccc2NC1c1ccc(OC)cc1 (centres unmarked) [3c, Methyl 2-(6-chloro-2-(4-methoxyphenyl)-4-oxo–1,2-dihydroquinazolin-3(4H)-yl)acetate] | – | 10% | – | -3% | 148 to 150 °C | –
COC(=O)CN1C(=O)c2cc(Cl)ccc2NC1c1ccccc1OC (centres unmarked) [3d, Methyl 2-(6-chloro-2-(2-methoxyphenyl)-4-oxo–1,2-dihydroquinazolin-3(4H)-yl)acetate] | – | 27% | – | 0% | 152 to 154 °C | –
NNC(=O)CN1C(=O)c2cc(Cl)ccc2NC1c1ccccc1 (centres unmarked) [4b, 2-(6-Chloro-4-oxo-2-phenyl-1,2-dihydroquinazolin-3(4H)-yl)acetohydrazide] | – | 31% | – | 6% | 184 to 185 °C | –
COc1ccc(C2Nc3ccc(Cl)cc3C(=O)N2CC(=O)NN)cc1 (centres unmarked) [4c, 2-(6-Chloro-2-(4-methoxyphenyl)-4-oxo-1,2-dihydroquiazolin-3(4H)-yl)acetohydrazide] | – | 27% | – | 0% | 159 to 160 °C | –
COc1ccccc1C1Nc2ccc(Cl)cc2C(=O)N1CC(=O)NN (centres unmarked) [4d, 2-(6-Chloro-2-(2-methoxyphenyl)-4-oxo-1,2-dihydroquinazolin-3(4H)-yl)acetohydrazide] | – | 28% | – | 0% | 149 to 151 °C | –
O=C(CN1C(=O)c2ccccc2NC1c1ccccc1)NN=Cc1ccccc1 (centres unmarked) [5a, N'-Benzylidene-2-(4-oxo-2-phenyl-1,2-dihydroquinazolin-3(4H)-yl)acetohydrazide] | full inhibition | 55% | < 10 µM and 10 µM | 19% | 223 to 225 °C | IC50 (μM) hMAO-B [1]: micromolar affinity; IC50 (μM) hMAO-A [2]: micromolar potency; IC50 [2]: 4.4 µM and 6 µM and 6.2 µM
O=C(CN1C(=O)c2ccccc2NC1c1ccccc1)NN=Cc1ccc(O)cc1 (centres unmarked) [5b, N'-(4-Hydroxybenzylidene)-2-(4-oxo-2-phenyl-1,2-dihydroquinazolin-3(4H)-yl)acetohydrazide] | – | 36% | 83 µM | 6% | 230 to 232 °C | IC50 (μM) hMAO-A [2]: none
COc1ccc(C=NNC(=O)CN2C(=O)c3ccccc3NC2c2ccccc2)cc1 (centres unmarked) [5c, N'-(4-Methoxybenzylidene)-2-(4-oxo-2-phenyl-1,2-dihydroquinazolin-3(4H)-yl)acetohydrazide] | – | – | – | – | 210 to 212 °C | –
COc1cc(C=NNC(=O)CN2C(=O)c3ccccc3NC2c2ccccc2)ccc1O (centres unmarked) [5d, N'-(4-Hydroxy-3-methoxybenzylidene)-2-(4-oxo-2-phenyl-1,2-dihydroquinazolin-3(4H)yl)acetohydrazide] | full inhibition | 70% | 0.75 ± 0.18 µM | 71% | 252 to 255 °C | IC50 (μM) hMAO-B [1]: micromolar affinity; selectivity MAO-A versus MAO-B [2]: threefold selective for MAO-A; inhibition of MAO-A compared with MAO-B in the screen [2]: equal inhibition of MAO-A and MAO-B; also recorded: equally inhibited; IC50 (μM) hMAO-A [2]: micromolar potency; IC50 [2]: 0.27 ± 0.06 µM
O=C(CN1C(=O)c2cc(Cl)ccc2NC1c1ccccc1)NN=Cc1ccccc1 (centres unmarked) [5e, N'-Benzylidene-2-(6-chloro-4-oxo-2-phenyl-1,4-dihydroquinazolin-3(2H)-yl)acetohydrazide] | – | 19% | – | 10% | 266 to 270 °C | –
COc1ccc(C=NNC(=O)CN2C(=O)c3cc(Cl)ccc3NC2c2ccccc2)cc1 (centres unmarked) [5f, 2-(6-Chloro-4-oxo-2-phenyl-1,4-dihydroquinazolin-3(2H)-yl)-N'-(4-methoxybenzylidene)-acetohydrazide] | – | – | – | – | 138 to 140 °C | –
O=C(CN1C(=O)c2cc(Cl)ccc2NC1c1ccccc1)NN=Cc1ccc(O)cc1 (centres unmarked) [5g, 2-(6-Chloro-4-oxo-2-phenyl-1,4-dihydroquinazolin-3(2H)-yl)-N'-(4-hydroxybenzylidene)acetohydrazide] | full inhibition | 36% | 11 ± 4 µM | 22% | 236 to 240 °C | IC50 (μM) hMAO-B [1]: micromolar affinity; selectivity MAO-A versus MAO-B [2]: A-selective; IC50 (μM) hMAO-A [2]: micromolar potency; IC50 [2]: 4.34 ± 1.31 µM
Cc1nc2ccccc2c(=O)n1/N=C/c1ccccc1 [14a] | 77% | 40% | < 10 µM and 6.84 µM | 5% | – | IC50 (μM) hMAO-A [2]: does not inhibit MAO-A
Cc1nc2ccccc2c(=O)n1/N=C/c1ccc(O)cc1 [14b] | 77% | 52% | 4.64 ± 0.41 µM | 14% | – | mechanism of inhibition of MAO-B ([1]; 30 min preincubation, dilution ×100, increasing substrate concentration): competitive inhibition; selectivity MAO-A versus MAO-B [2]: B-selective; IC50 (μM) hMAO-A [2]: no inhibition
COc1ccc(/C=N/n2c(C)nc3ccccc3c2=O)cc1 [14c] | 73% | 44% | 6.75 ± 1.06 µM | 8% | – | –
COc1cc(/C=N/n2c(C)nc3ccccc3c2=O)ccc1O [14d] | 77% | 44% | 5.93 ± 1.02 µM | 11% | – | –
NNC(=O)Cn1c(-c2ccccc2)nc2ccccc2c1=O [compound 7, 2-(4-oxo-2-phenylquinazolin-3(4H)-yl)acetohydrazide] | – | – | – | – | 215 to 218 °C | –
COC(=O)Cn1c(-c2ccccc2)nc2ccccc2c1=O [compound 8, Methyl 2-(4-oxo-2-phenylquinazolin-3(4H)-yl)acetate] | – | – | – | – | 115 to 116 °C | –
Cc1nc2ccccc2c(=O)n1CC(=O)NN [compound 11, 2-(2-Methyl-4-oxoquinazolin-3(4H)-yl)acetohydrazide] | – | 19% | > 100 µM | 15% | – | inhibition of MAO-A compared with MAO-B in the screen [2]: equal inhibition of MAO-A and MAO-B; also recorded: equally inhibited
Cc1nc2ccccc2c(=O)n1N [compound 13] | – | 23% | – | -8% | – | –
COc1ccc2c(c1)[nH]c1c(C)nccc12 [harmine, reference compound] | – | 17% | 11.6 ± 3.1 µM | 100% | – | –
C[C@H](NCc1ccc(OCc2cccc(F)c2)cc1)C(N)=O [safinamide, reference compound] | – | – | – | 11% | – | –
